In PubChem BioAssay (NCI):
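Protocol summary: plate cells (96-well), add compound at 5 concentrations, incubate 48 h, interpolate endpoints linearly. The concentration for full growth arrest is given as TGI.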

How the values were obtained:
Assay in all cases: NCI anticancer screen, dose series, 48 h
ACHN renal = test system: ACHN renal
SK-OV-3 ovarian = test system: SK-OV-3 ovarian
PC-3 prostate = test system: PC-3 prostate
SF-268 CNS = test system: SF-268 CNS
MDA-MB-231 breast = test system: MDA-MB-231 breast
SNB-19 CNS = test system: SNB-19 CNS
M14 melanoma = test system: M14 melanoma
K-562 leukemia = test system: K-562 leukemia
HT29 colon = test system: HT29 colon
A549 NSCLC = test system: A549 NSCLC
RPMI-8226 leukemia = test system: RPMI-8226 leukemia
MCF7 breast = test system: MCF7 breast
SR leukemia = test system: SR leukemia
CCRF-CEM leukemia = test system: CCRF-CEM leukemia
EKVX NSCLC = test system: EKVX NSCLC
786-0 renal = test system: 786-0 renal
T-47D breast = test system: T-47D breast
OVCAR-3 ovarian = test system: OVCAR-3 ovarian
SF-295 CNS = test system: SF-295 CNS
MALME-3M melanoma = test system: MALME-3M melanoma
SW-620 colon = test system: SW-620 colon
HCT-116 colon = test system: HCT-116 colon
OVCAR-4 ovarian = test system: OVCAR-4 ovarian
SK-MEL-5 melanoma = test system: SK-MEL-5 melanoma
NCI-H460 lung = test system: NCI-H460 lung
HOP-92 NSCLC = test system: HOP-92 NSCLC
SK-MEL-28 melanoma = test system: SK-MEL-28 melanoma
HCC-2998 colon = test system: HCC-2998 colon
SN12C renal = test system: SN12C renal
NCI-H522 lung = test system: NCI-H522 lung
MDA-MB-435 = test system: MDA-MB-435
DU-145 prostate = test system: DU-145 prostate
CAKI-1 renal = test system: CAKI-1 renal
HOP-62 NSCLC = test system: HOP-62 NSCLC
SF-539 CNS = test system: SF-539 CNS
HCT-15 colon = test system: HCT-15 colon
COLO 205 colon = test system: COLO 205 colon
NCI/ADR-RES ovarian = test system: NCI/ADR-RES ovarian
OVCAR-8 ovarian = test system: OVCAR-8 ovarian
TK-10 renal = test system: TK-10 renal
UACC-257 melanoma = test system: UACC-257 melanoma
IGROV1 ovarian = test system: IGROV1 ovarian
MOLT-4 leukemia = test system: MOLT-4 leukemia
U251 CNS = test system: U251 CNS
UO-31 renal = test system: UO-31 renal
HS 578T breast = test system: HS 578T breast
BT-549 breast = test system: BT-549 breast
NCI-H23 lung = test system: NCI-H23 lung
MDA-N = test system: MDA-N
OVCAR-5 ovarian = test system: OVCAR-5 ovarian
LOX IMVI melanoma = test system: LOX IMVI melanoma
UACC-62 melanoma = test system: UACC-62 melanoma
SNB-75 CNS = test system: SNB-75 CNS
A498 renal = test system: A498 renal
KM12 colon = test system: KM12 colon
RXF 393 renal = test system: RXF 393 renal
NCI-H226 lung = test system: NCI-H226 lung
HL-60(TB) leukemia = test system: HL-60(TB) leukemia
SK-MEL-2 melanoma = test system: SK-MEL-2 melanoma

`O=C(Cc1ccccc1)NNc1nc(NNC(=O)c2ccncc2)nc(Nc2ccc([N+](=O)[O-])cc2)n1` gave a TGI (ACHN renal) of over 10 µM, a TGI (SK-OV-3 ovarian) of over 10 µM and a TGI (PC-3 prostate) of over 10 µM. It also gave a TGI (SF-268 CNS) of over 10 µM, a TGI (MDA-MB-231 breast) of over 10 µM and a TGI (SNB-19 CNS) of over 10 µM. The TGI (M14 melanoma) was over 10 µM, the TGI (K-562 leukemia) was over 10 µM and the TGI (HT29 colon) was over 10 µM. It also gave a TGI (A549 NSCLC) of over 10 µM, a TGI (RPMI-8226 leukemia) of over 10 µM and a TGI (MCF7 breast) of over 10 µM. The TGI (SR leukemia) was over 10 µM, the TGI (CCRF-CEM leukemia) was over 10 µM and the TGI (EKVX NSCLC) was over 10 µM. It also gave a TGI (786-0 renal) of over 10 µM, a TGI (T-47D breast) of over 10 µM and a TGI (OVCAR-3 ovarian) of over 10 µM. For the same molecule, the TGI (SF-295 CNS) was over 10 µM, the TGI (MALME-3M melanoma) was over 10 µM and the TGI (SW-620 colon) was over 10 µM. It also gave a TGI (HCT-116 colon) of over 10 µM, a TGI (OVCAR-4 ovarian) of over 10 µM and a TGI (SK-MEL-5 melanoma) of over 10 µM. For the same molecule, the TGI (NCI-H460 lung) was over 10 µM, the TGI (HOP-92 NSCLC) was over 10 µM and the TGI (SK-MEL-28 melanoma) was over 10 µM. The TGI (HCC-2998 colon) was over 10 µM, the TGI (SN12C renal) was over 10 µM and the TGI (NCI-H522 lung) was over 10 µM. The TGI (MDA-MB-435) was over 10 µM, the TGI (DU-145 prostate) was over 10 µM and the TGI (CAKI-1 renal) was over 10 µM. The TGI (HOP-62 NSCLC) was over 10 µM, the TGI (SF-539 CNS) was over 10 µM and the TGI (HCT-15 colon) was over 10 µM. It also gave a TGI (COLO 205 colon) of over 10 µM, a TGI (NCI/ADR-RES ovarian) of over 10 µM and a TGI (OVCAR-8 ovarian) of over 10 µM. The TGI (TK-10 renal) was over 10 µM, the TGI (UACC-257 melanoma) was over 10 µM and the TGI (IGROV1 ovarian) was over 10 µM. It also gave a TGI (MOLT-4 leukemia) of over 10 µM, a TGI (U251 CNS) of over 10 µM and a TGI (UO-31 renal) of over 10 µM. The TGI (HS 578T breast) was over 10 µM, the TGI (BT-549 breast) was over 10 µM and the TGI (NCI-H23 lung) was over 10 µM. For the same molecule, the TGI (MDA-N) was over 10 µM, the TGI (OVCAR-5 ovarian) was over 10 µM and the TGI (LOX IMVI melanoma) was over 10 µM. The TGI (UACC-62 melanoma) was over 10 µM, the TGI (SNB-75 CNS) was over 10 µM and the TGI (A498 renal) was over 10 µM. For the same molecule, the TGI (KM12 colon) was over 10 µM.
Molecule `O=C(/C=C/c1ccccc1)CCN1CCN(CCC(=O)/C=C/c2ccccc2)CC1` has a TGI (ACHN renal) of 29.5 µM, a TGI (SK-OV-3 ovarian) of over 100 µM and a TGI (PC-3 prostate) of 34 µM. For the same molecule, the TGI (SF-268 CNS) was 29.2 µM, the TGI (MDA-MB-231 breast) was 17 µM and the TGI (SNB-19 CNS) was 32.6 µM. The TGI (M14 melanoma) was 23.9 µM, the TGI (K-562 leukemia) was over 100 µM and the TGI (HT29 colon) was 30.4 µM. It also gave a TGI (A549 NSCLC) of over 100 µM, a TGI (RPMI-8226 leukemia) of over 100 µM and a TGI (MCF7 breast) of 20.7 µM. It also gave a TGI (RXF 393 renal) of 28.8 µM, a TGI (CCRF-CEM leukemia) of 28.1 µM and a TGI (EKVX NSCLC) of 35.2 µM. For the same molecule, the TGI (786-0 renal) was 18.9 µM, the TGI (T-47D breast) was 31.2 µM and the TGI (OVCAR-3 ovarian) was 30.7 µM. For the same molecule, the TGI (SF-295 CNS) was 31.2 µM, the TGI (MALME-3M melanoma) was 30.9 µM and the TGI (SW-620 colon) was 17.4 µM. It also gave a TGI (HCT-116 colon) of 5.28 µM, a TGI (OVCAR-4 ovarian) of 39.3 µM and a TGI (SK-MEL-5 melanoma) of 28.7 µM. It also gave a TGI (NCI-H460 lung) of 31 µM, a TGI (HOP-92 NSCLC) of 35.9 µM and a TGI (SK-MEL-28 melanoma) of 27.8 µM. The TGI (HCC-2998 colon) was 30.4 µM, the TGI (SN12C renal) was 21.7 µM and the TGI (NCI-H522 lung) was 30 µM. It also gave a TGI (MDA-MB-435) of 14.8 µM, a TGI (DU-145 prostate) of 31.5 µM and a TGI (CAKI-1 renal) of 31.9 µM. For the same molecule, the TGI (HOP-62 NSCLC) was 43.9 µM, the TGI (SF-539 CNS) was 28.8 µM and the TGI (HCT-15 colon) was 23 µM. It also gave a TGI (COLO 205 colon) of 31.1 µM, a TGI (NCI/ADR-RES ovarian) of 60.7 µM and a TGI (OVCAR-8 ovarian) of 31.4 µM. It also gave a TGI (TK-10 renal) of 30 µM, a TGI (UACC-257 melanoma) of 24 µM and a TGI (IGROV1 ovarian) of 33.1 µM. The TGI (MOLT-4 leukemia) was 85.5 µM, the TGI (U251 CNS) was 30.3 µM and the TGI (UO-31 renal) was 30.8 µM. For the same molecule, the TGI (NCI-H226 lung) was 64.4 µM, the TGI (HS 578T breast) was 37.2 µM and the TGI (BT-549 breast) was 28.4 µM. For the same molecule, the TGI (NCI-H23 lung) was 31.2 µM, the TGI (HL-60(TB) leukemia) was over 100 µM and the TGI (MDA-N) was 6.79 µM. It also gave a TGI (OVCAR-5 ovarian) of 30.5 µM, a TGI (LOX IMVI melanoma) of 5.88 µM and a TGI (UACC-62 melanoma) of 30.2 µM. The TGI (SK-MEL-2 melanoma) was 37.5 µM, the TGI (SNB-75 CNS) was 29.7 µM and the TGI (A498 renal) was 33.3 µM. It also gave a TGI (KM12 colon) of 17 µM.
